In ChEMBL document CHEMBL1811877, “Bioactive neolignans and lignans from the bark of Machilus robusta” (J Nat Prod, 2011) one finds Activity, inhibition and IC50 data, which are given here for 22 compounds.

In assay [1] the test system is PC-12. Description: Cytoprotection against serum deprivation-induced cellular damage of rat PC12 cells assessed as increase in cell viability at 10 uM after 48 hrs by MTT assay (reference value: 66.6 +/- 9.2%). It counts as functional.
The next assay concerns WB-F344. Description: (§1) Hepatoprotective activity in rat WB-F344 cells assessed as inhibition of D-galactosamine-induced cell damage at 10 uM treated 1 hr before D-galactosamine challenge after 24 hrs by MTT assay. It counts as functional.
Assay [2] concerns Human immunodeficiency virus 1. Description: Antiviral activity against Human immunodeficiency virus 1 assessed as inhibition of viral replication. It is filed as functional, organism-based.
The subject of assay [3] is Human immunodeficiency virus 1. Description: Antiviral activity against Human immunodeficiency virus 1 assessed as inhibition of viral replication at 0.001 uM. It counts as functional.
For assay [4], the system named is PC-12. Description: Cytoprotection against rotenone-induced toxicity in rat PC12 cells assessed as increase in cell viability at 10 uM after 48 hrs by MTT assay (reference value: 73.0 +/- 9.6%). It is filed as functional.
The nature of assay [5]: as §1. It counts as functional.

Activity calls are given as the source filed them. The rule behind the calls is not given here.

Take `COc1cc([C@@H]2OC[C@H]3[C@@H]2CO[C@H]3c2ccc(O)c(OC)c2)ccc1O` [(-)-PINORESINOL]: in the assay on PC-12 [1], the Activity was determined as 73.2%.

As for `COc1cc(C[C@H](COC(C)=O)[C@H](C)Cc2cc(OC)c(O)c(OC)c2)ccc1O`, the result in the assay with PC-12 [1] and in the assay with PC-12 [4] was inactive. Besides, the inhibition entry (with WB-F344; in assay [2]; in assay [3]) was “inactive” in each case.

For `COc1cc(C[C@H](C)[C@H](COC(C)=O)Cc2cc(OC)c(O)c(OC)c2)ccc1O`, the outcome in the assay with PC-12 [1] and with PC-12 [4] was inactive. Besides, the inhibition entry (in the assay on WB-F344; in assay [2]; in assay [3]) was “inactive” each time.

`COc1cc(C[C@H](C)[C@H](C)Cc2cc(OC)c(OC)c(OC)c2)ccc1O`: the outcome in the assay with PC-12 [1] and in the assay on PC-12 [4] was inactive. In addition, the inhibition entry (in the assay on WB-F344; in assay [2]; in assay [3]) was “inactive” each time.

In the case of `COc1cc(C[C@H](C)[C@H](C)Cc2cc(OC)c(O[C@H](C)[C@@H](O)c3ccc(O)c(OC)c3)c(OC)c2)ccc1O`, the outcome with PC-12 [1] and in the assay on PC-12 [4] was inactive. Also, the inhibition entry (with WB-F344; in assay [3]) was “inactive” in each case. Moreover, the IC50 in assay [2] turned out to be 2.52 µM.

For the compound `COc1cc(C[C@H](C)[C@H](C)Cc2cc(OC)c(O)c(OC)c2)ccc1O`, the outcome with PC-12 [1] and in the assay on PC-12 [4] was inactive. The inhibition entry (in the assay on WB-F344; in assay [2]; in assay [3]) was “inactive” throughout.

`COc1cc2c(cc1O)[C@H](c1cc(OC)c(O)c(OC)c1)[C@@H](C)[C@@H](COC(C)=O)C2`: the result with PC-12 [1] and in the assay on PC-12 [4] was inactive. Also, the inhibition result (in the assay with WB-F344; in assay [2]; in assay [3]) was “inactive” each time.

With `COC(=O)c1cc(OC)c2c(c1-c1c(CO)cc(OC)c3c1OCO3)OCO2` [BICYCLOL], in assay [5], the inhibition at 10 µM was determined as 67%.

For the compound `COc1cc2c(cc1O)C(=O)[C@H](C)[C@@H](C)C2`, the result in the assay on PC-12 [1] and in the assay with PC-12 [4] was inactive. Moreover, the inhibition result (with WB-F344; in assay [2]; in assay [3]) was “inactive” throughout.

Consider `COc1cc([C@H]2O[C@@H](c3cc(OC)c(O)c(OC)c3)[C@H](C)[C@@H]2C)ccc1O`, for which the outcome with PC-12 [1] and in the assay on PC-12 [4] was inactive. Moreover, the inhibition result (with WB-F344; in assay [2]; in assay [3]) was “inactive” in each case.

As to `COc1cc2c(cc1O)[C@H](c1cc(O)c(O)c(OC)c1)[C@@H](C)[C@@H](C)C2`, the outcome in the assay with PC-12 [1] and in the assay with PC-12 [4] was inactive. Also, in assay [5], the inhibition at 10 µM was 77.2%. Further, the inhibition result in assay [2] and in assay [3] was “inactive” in each case.

`COc1cc2c(cc1O)[C@H](c1cc(OC)c(OC)c(OC)c1)[C@@H](C)[C@@H](C)C2`: the result with PC-12 [1] and in the assay on PC-12 [4] was inactive. The inhibition result (with WB-F344; in assay [2]; in assay [3]) was “inactive” throughout.

With `COc1cc([C@H](O)[C@@H](C)Oc2ccc([C@H]3c4cc(O)c(OC)cc4C[C@@H](C)[C@@H]3C)cc2OC)ccc1O`, the result in the assay on PC-12 [1] and in the assay on PC-12 [4] was inactive. In addition, the inhibition result (in the assay with WB-F344; in assay [2]; in assay [3]) was “inactive” throughout.

`COc1cc(C[C@H](C)[C@H](C)Cc2cc(OC)c(O[C@@H](C)[C@@H](O)c3ccc(O)c(OC)c3)c(OC)c2)ccc1O`: the result in the assay on PC-12 [1] and in the assay on PC-12 [4] was inactive. Besides, the inhibition result (with WB-F344; in assay [3]) was “inactive” throughout. Also, the IC50 in assay [2] is 2.01 µM.

As to `COc1cc2c(cc1O)C(=O)[C@H](C)[C@H](C)C2`, the result in the assay with PC-12 [1] and in the assay on PC-12 [4] was inactive. Moreover, the inhibition entry (in the assay with WB-F344; in assay [2]; in assay [3]) was “inactive” throughout.

In the case of `COc1cc2c(cc1O)[C@H](c1cc(OC)c(O)c(OC)c1)[C@@H](C)[C@@H](C)C2`, the outcome in the assay on PC-12 [1] and in the assay on PC-12 [4] was inactive. The inhibition at 10 µM in assay [5] stood at 64%. Further, the inhibition result in assay [2] and in assay [3] was “inactive” throughout.

`COc1cc([C@H]2c3c(cc(OC)c(O)c3OC)C[C@@H](CO)[C@@H]2CO)cc(OC)c1O`: the Activity in the assay on PC-12 [1] came to 79.4%.

In the case of `COc1cc([C@@H]2OC[C@H](Cc3cc(OC)c(O)c(OC)c3)[C@H]2C)ccc1O`, the outcome in the assay with PC-12 [1] and in the assay on PC-12 [4] was inactive. Besides, the inhibition entry (in the assay with WB-F344; in assay [2]; in assay [3]) was “inactive” in each case.

On to `COc1cc(C[C@H](C)[C@H](C)Cc2cc(O)c(O)c(OC)c2)ccc1O`, for which the result in the assay with PC-12 [1] was inactive. Besides, the inhibition at 10 µM in assay [5] came to 68%. In addition, the inhibition entry in assay [2] and in assay [3] was “inactive” each time. Further, in the assay with PC-12 [4], the Activity was 96.2%.

As for `O=C1Nc2ccc(Cl)cc2[C@@](C#CC2CC2)(C(F)(F)F)O1` [EFAVIRENZ], the inhibition at 0.001 µM in assay [3] is 42.5%.

For `COc1cc2c(cc1O)[C@H](c1ccc(O)c(O)c1)[C@@H](C)[C@@H](C)C2`, the result in the assay on PC-12 [1] and in the assay with PC-12 [4] was inactive. Further, the inhibition result (in the assay on WB-F344; in assay [2]; in assay [3]) was “inactive” in each case.

Turning to `COc1cc(C[C@H](C)[C@H](C)Cc2ccc(O)cc2)ccc1O`, the result in the assay with PC-12 [1] and with PC-12 [4] was inactive. The inhibition result (in the assay on WB-F344; in assay [2]; in assay [3]) was “inactive” in each case.
